The text below walks through data of patent publication US9023789B2, “Amylin analogs and pharmaceutical compositions thereof” (Novo Nordisk A/S, priority 2012, dated 2015).

Data set [1] in a line: ASSAY (IV) determination of solubility. The class given is physicochemical. The method, boiled down: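 UPLC read-out of polypeptide concentration after centrifugation. Samples: aqueous polypeptide stock ([…]) + 100 mM buffer 1:1, glycylglycine pH 3.0–5.0 or bistrispropane pH 6.0–8.0; 18 h, RT.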
Data set [2] addresses T1, human amylin receptor (membranes from Amylin 3(a)/CRE-luc cells) (Homo sapiens, UniProt O60896+P30988).
T1 construct: expressed in transfected cells
T1 sequence (P30988 25-474): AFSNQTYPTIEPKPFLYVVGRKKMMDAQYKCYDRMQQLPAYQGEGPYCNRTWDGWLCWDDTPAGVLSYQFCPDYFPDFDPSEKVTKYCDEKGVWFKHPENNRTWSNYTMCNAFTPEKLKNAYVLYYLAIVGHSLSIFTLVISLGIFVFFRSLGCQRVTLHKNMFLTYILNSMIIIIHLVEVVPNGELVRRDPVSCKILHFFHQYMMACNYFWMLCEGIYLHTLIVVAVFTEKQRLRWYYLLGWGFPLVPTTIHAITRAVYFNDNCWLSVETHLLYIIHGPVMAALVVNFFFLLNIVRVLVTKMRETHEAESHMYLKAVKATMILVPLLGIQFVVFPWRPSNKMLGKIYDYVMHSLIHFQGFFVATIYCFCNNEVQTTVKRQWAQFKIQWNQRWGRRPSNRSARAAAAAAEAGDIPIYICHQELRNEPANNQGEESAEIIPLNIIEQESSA
T1 sequence (O60896 24-148 partner): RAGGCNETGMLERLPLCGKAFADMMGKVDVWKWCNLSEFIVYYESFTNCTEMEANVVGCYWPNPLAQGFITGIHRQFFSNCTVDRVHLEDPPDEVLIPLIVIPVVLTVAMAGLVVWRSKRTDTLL
Put plainly: ASSAY (V) binding to the human amylin receptor (SPA, 125I-rat amylin).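 On all read-outs here: competition binding of cell membranes (35 ng/µL) mixed with SPA beads in 384-well plates at 40 µL total volume, read by scintillation counting.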 As to conditions: for IC50: Table 4, read-out: hAmylin-R bind IC50.

The mark [3] stands for this setting: bistrispropane buffer, pH 6.5, read-out: Solubility pH 6.5 Concentration.
The mark [4] stands for this setting: bistrispropane buffer, pH 7.5, read-out: Solubility pH 7.5 Concentration.
Setting [5] is: bistrispropane buffer, pH 6.0, read-out: Solubility pH 6.0 Concentration.
[6] abbreviates: bistrispropane buffer, pH 7.0, read-out: Solubility pH 7.0 Concentration.
Setting [7] is: bistrispropane buffer, pH 8.0, read-out: Solubility pH 8.0 Concentration.
[8] abbreviates: glycylglycine buffer, pH 3.0, read-out: Solubility pH 3.0 Concentration.
Setting [9] is: glycylglycine buffer, pH 4.0, read-out: Solubility pH 4.0 Concentration.
[10] abbreviates: glycylglycine buffer, pH 5.0, read-out: Solubility pH 5.0 Concentration.
The mark [11] stands for this setting: Table 5, selectivity, hCTR bind IC50 / hAmylin-R bind IC50.
[12] abbreviates: Table 7, human binding selectivity, included for comparison.

Read-outs that look alike come from different tables or passages of the source. Numbered stars: 1 amine (or outer) side, 2 acyl side, 3 side chain; on linkers, the order of the positions; unused ones are H or OH. Bridge positions count the residues as written; N and C are the ends. Side chains are listed from the residue outwards. Peptide text beside a SMILES is read from it. * marks the point of attachment. C20 diacid = O=C(O)CCCCCCCCCCCCCCCCCCC(=O)*; γGlu = O=C(O)[C@H](CCC(=O)[*:2])N[*:1]; AEEA = NCCOCCOCC(=O)O A value given as a limit tells only on which side of the number the result lay.

Regarding `CC[C@H](C)[C@H](NC(=O)[C@H](C)NC(=O)CNC(=O)[C@H](Cc1ccccc1)NC(=O)[C@H](CC(N)=O)NC(=O)[C@@H]1CCCN1C(=O)[C@H](CO)NC(=O)[C@H](CO)NC(=O)[C@H](Cc1c[nH]cn1)NC(=O)[C@H](CCCNC(=N)N)NC(=O)[C@H](CC(C)C)NC(=O)[C@H](Cc1ccccc1)NC(=O)[C@H](Cc1c[nH]cn1)NC(=O)[C@H](C)NC(=O)[C@H](CC(C)C)NC(=O)[C@H](CCCNC(=N)N)NC(=O)[C@H](CCC(N)=O)NC(=O)[C@@H](NC(=O)[C@H](C)NC(=O)[C@@H]1CSSC[C@H](NC(=O)[C@@H](N)CCCCNC(=O)CC[C@H](NC(=O)CCCCCCCCCCCCCCCCCCC(=O)O)C(=O)O)C(=O)N[C@@H](CC(N)=O)C(=O)N[C@@H]([C@@H](C)O)C(=O)N[C@@H](C)C(=O)N[C@@H]([C@@H](C)O)C(=O)N1)[C@@H](C)O)C(=O)N1CCC[C@H]1C(=O)N[C@@H](CO)C(=O)N[C@@H](CO)C(=O)N[C@H](C(=O)N[C@@H](CC(N)=O)C(=O)N[C@H](C(=O)NCC(=O)N1CCC[C@H]1C(=O)N[C@@H](CC(N)=O)C(=O)N[C@H](C(=O)N1CCC[C@H]1C(N)=O)[C@@H](C)O)C(C)C)[C@@H](C)O` [Example 115] (H-K([γGlu-C20 diacid])CNTATCATQRLAHFLRHSSPNFGAIPSSTNVGPNTP-NH2; disulfide 2-7 (inferred); N-terminus assumed), the solubility at 18 h in data set [1] (setting [3]), in data set [1] (setting [4]), in data set [1] (setting [5]), in data set [1] (setting [6]), in data set [1] (setting [7]) and in data set [1] (setting [8]) was ≥ 200 µM throughout. For the same compound, the solubility at 18 h in data set [1] (setting [9]) and in data set [1] (setting [10]) was ≥ 200 µM in each case. Besides, the IC50 in data set [2] turned out to be 0.131 nM. Moreover, the “Ratio hCT/hAmylin binding” value in data set [2] (setting [11]) and in data set [2] (setting [12]) was 1.2 throughout.

Take `CC[C@H](C)[C@H](NC(=O)[C@H](C)NC(=O)CNC(=O)[C@H](Cc1ccccc1)NC(=O)[C@H](CC(N)=O)NC(=O)[C@@H]1CCCN1C(=O)[C@H](CO)NC(=O)[C@H](CO)NC(=O)[C@H](Cc1c[nH]cn1)NC(=O)[C@H](CCCNC(=N)N)NC(=O)[C@H](CC(C)C)NC(=O)[C@H](Cc1ccccc1)NC(=O)[C@H](CCC(=O)O)NC(=O)[C@H](C)NC(=O)[C@H](CC(C)C)NC(=O)[C@H](CCCNC(=N)N)NC(=O)[C@H](CCC(N)=O)NC(=O)[C@@H](NC(=O)[C@H](C)NC(=O)[C@@H]1CSSC[C@H](NC(=O)[C@H](CCCCN)NC(=O)COCCOCCNC(=O)COCCOCCNC(=O)CC[C@H](NC(=O)CCCCCCCCCCCCCCCCCCC(=O)O)C(=O)O)C(=O)N[C@@H](CC(N)=O)C(=O)N[C@@H]([C@@H](C)O)C(=O)N[C@@H](C)C(=O)N[C@@H]([C@@H](C)O)C(=O)N1)[C@@H](C)O)C(=O)N1CCC[C@H]1C(=O)N[C@@H](CO)C(=O)N[C@@H](CO)C(=O)N[C@H](C(=O)N[C@@H](CC(N)=O)C(=O)N[C@H](C(=O)NCC(=O)N[C@@H](CO)C(=O)N[C@@H](CC(N)=O)C(=O)N[C@H](C(=O)N1CCC[C@H]1C(N)=O)[C@@H](C)O)C(C)C)[C@@H](C)O` [Example 20] ({C20 diacid-γGlu-AEEA-AEEA}-KCNTATCATQRLAEFLRHSSPNFGAIPSSTNVGSNTP-NH2; disulfide 2-7): the solubility at 18 h in data set [1] (setting [3]), in data set [1] (setting [4]), in data set [1] (setting [5]), in data set [1] (setting [6]), in data set [1] (setting [7]) and in data set [1] (setting [8]) was ≥ 200 µM each time. For the same compound, the solubility at 18 h in data set [1] (setting [9]) and in data set [1] (setting [10]) was ≥ 200 µM in each case. Moreover, the IC50 in data set [2] worked out at 0.217 nM. Moreover, the “Ratio hCT/hAmylin binding” value in data set [2] (setting [11]) and in data set [2] (setting [12]) was 3.6 in each case.

As to `CC[C@H](C)[C@H](NC(=O)[C@H](C)NC(=O)CNC(=O)[C@H](Cc1ccccc1)NC(=O)[C@H](CC(N)=O)NC(=O)[C@@H]1CCCN1C(=O)[C@H](CO)NC(=O)[C@H](CO)NC(=O)[C@H](Cc1c[nH]cn1)NC(=O)[C@H](CCCNC(=N)N)NC(=O)[C@H](CC(C)C)NC(=O)[C@H](Cc1ccccc1)NC(=O)[C@H](CCC(=O)O)NC(=O)[C@H](C)NC(=O)[C@H](CC(C)C)NC(=O)[C@H](CCCNC(=N)N)NC(=O)[C@H](CCC(N)=O)NC(=O)[C@@H](NC(=O)[C@H](C)NC(=O)[C@@H]1CSSC[C@H](NC(=O)[C@@H](N)CCCCNC(=O)CC[C@H](NC(=O)CCCCCCCCCCCCCCCCCCC(=O)O)C(=O)O)C(=O)N[C@@H](CC(N)=O)C(=O)N[C@@H]([C@@H](C)O)C(=O)N[C@@H](C)C(=O)N[C@@H]([C@@H](C)O)C(=O)N1)[C@@H](C)O)C(=O)N1CCC[C@H]1C(=O)N[C@@H](CO)C(=O)N[C@@H](CO)C(=O)N[C@H](C(=O)N[C@@H](CC(N)=O)C(=O)N[C@H](C(=O)NCC(=O)N1CCC[C@H]1C(=O)N[C@@H](CC(N)=O)C(=O)N[C@H](C(=O)N1CCC[C@H]1C(N)=O)[C@@H](C)O)C(C)C)[C@@H](C)O` [Example 114] (H-K([γGlu-C20 diacid])CNTATCATQRLAEFLRHSSPNFGAIPSSTNVGPNTP-NH2; disulfide 2-7 (inferred); N-terminus assumed), the solubility at 18 h in data set [1] (setting [3]), in data set [1] (setting [4]), in data set [1] (setting [5]), in data set [1] (setting [6]), in data set [1] (setting [7]) and in data set [1] (setting [8]) was ≥ 200 µM in each case. Further, the solubility at 18 h in data set [1] (setting [9]) and in data set [1] (setting [10]) was ≥ 200 µM each time. The “Ratio hCT/hAmylin binding” value in data set [2] (setting [11]) and in data set [2] (setting [12]) was 0.5 each time.

One may read the IC50 as the concentration needed to halve the response being measured.
